Data as given in the NIST ThermoML archive (doi:10.1016/j.jct.2018.08.005).

Assay: xn = mol fraction of the nth substance listed
Conditions: Liquid; for mass density: Vibrating tube method; for speed of sound: Frequency=3 MHz, Pulse-echo method

CCOC(F)(C(F)(F)C(F)(F)C(F)(F)F)C(F)(C(F)(F)F)C(F)(F)F (stereo not given) [2-trifluoromethyl-3-ethoxydodecafluorohexane] + CC(C)OC(C)C
Conditions	mass density, x1 = 0.25 [kg/m3]	mass density, x1 = 0.375 [kg/m3]	mass density, x1 = 0.5 [kg/m3]	mass density, x1 = 0.625 [kg/m3]	mass density, x1 = 0.75 [kg/m3]	speed of sound, x1 = 0.25 [m/s]	speed of sound, x1 = 0.375 [m/s]	speed of sound, x1 = 0.5 [m/s]	speed of sound, x1 = 0.625 [m/s]	speed of sound, x1 = 0.75 [m/s]
313.15 K, 50000 kPa	–	–	–	1451.1	1541	–	–	–	–	–
313.15 K, 60000 kPa	1111.4	1244.1	1360.5	1464.9	1555.4	1065.1	1009.2	967.9	946.8	921.7
313.15 K, 70000 kPa	1121.5	1255	1372.6	1477.7	1568.7	–	–	–	–	–
313.15 K, 80000 kPa	1130.9	1265.4	1383.8	1489.6	1581.1	1141.4	1082.8	1039.3	1017.4	990.1
313.15 K, 90000 kPa	1139.7	1275.3	1394.3	1500.7	1592.6	–	–	–	–	–
313.15 K, 100000 kPa	1148	1284.4	1404.2	1511.1	1603.5	1209.6	1148.8	1102.9	1079.9	1050.9
313.15 K, 110000 kPa	1156	1293.2	1413.7	1521.2	1614	–	–	–	–	–
313.15 K, 120000 kPa	1163.3	1301.3	1422.4	1530.6	1623.6	–	–	–	–	–
313.15 K, 130000 kPa	1170.4	1309.4	1431	1539.5	1633	–	–	–	–	–
313.15 K, 140000 kPa	1177.2	1316.8	1439	1548.1	1641.9	–	–	–	–	–
323.15 K, 100 kPa	1006.7	1127.2	1235	1332.2	1418.1	693.3	650	624.3	609.9	597.4
323.15 K, 10000 kPa	1029	1152.3	1262	1360.8	1447.4	–	–	–	–	–
323.15 K, 20000 kPa	1047.5	1173	1284.2	1384.2	1471.7	841.6	794.7	761.3	745.2	726.1
323.15 K, 30000 kPa	1063.3	1190.5	1303.2	1404.3	1492.5	–	–	–	–	–
323.15 K, 40000 kPa	1077.2	1206.1	1319.9	1421.9	1510.7	952.5	901	862.9	846.1	822.8
323.15 K, 50000 kPa	1089.7	1220	1334.9	1437.6	1527.2	–	–	–	–	–
323.15 K, 60000 kPa	1101	1232.6	1348.5	1452	1542.2	1043.6	987.7	946.9	927.8	902.5
323.15 K, 70000 kPa	1111.5	1244.2	1361	1465.1	1555.9	–	–	–	–	–
323.15 K, 80000 kPa	1121.1	1255	1372.5	1477.3	1568.7	1123.2	1063	1019.6	998.6	971.8
323.15 K, 90000 kPa	1130.2	1265.1	1383.4	1488.8	1580.6	–	–	–	–	–
323.15 K, 100000 kPa	1138.8	1274.5	1393.7	1499.6	1591.9	1193.8	1129.2	1084.4	1061.6	1033.7
323.15 K, 110000 kPa	1146.9	1283.5	1403.2	1509.8	1602.5	–	–	–	–	–
323.15 K, 120000 kPa	1154.5	1291.9	1412.4	1519.5	1612.5	–	–	–	–	–
323.15 K, 130000 kPa	1161.7	1299.9	1421.1	1528.7	1622.1	–	–	–	–	–
323.15 K, 140000 kPa	1168.7	1307.7	1429.4	1537.4	1631.3	–	–	–	–	–
333.15 K, 100 kPa	990.5	1109.5	1216.5	1312.3	1397.5	659.8	617.9	593.4	579.9	568.6
333.15 K, 10000 kPa	1014.9	1137	1245.9	1343.3	1429.3	–	–	–	–	–
333.15 K, 20000 kPa	1034.7	1159.2	1269.8	1368.5	1455.3	816	769.7	737.4	720.8	703.1
333.15 K, 30000 kPa	1051.5	1177.9	1290	1389.8	1477.3	–	–	–	–	–
333.15 K, 40000 kPa	1066.2	1194.2	1307.5	1408.4	1496.6	930.9	878.9	842	823.8	802.8
333.15 K, 50000 kPa	1079.3	1208.8	1323.2	1424.9	1513.8	–	–	–	–	–
333.15 K, 60000 kPa	1091.1	1222	1337.3	1439.9	1529.4	1024.9	968.2	927.8	907.5	884.3
333.15 K, 70000 kPa	1101.9	1234	1350.3	1453.7	1543.7	–	–	–	–	–
333.15 K, 80000 kPa	1112	1244.9	1362.3	1466.4	1556.9	1106.8	1044.5	1001.6	980	954.4
333.15 K, 90000 kPa	1121.4	1255.4	1373.5	1478.4	1569.3	–	–	–	–	–
333.15 K, 100000 kPa	1130.3	1265.1	1384	1489.4	–	–	1111.7	1067.2	1043.9	1016.8
